Measurements taken from PubChem BioAssay (NCI).
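Results reflect a 48-hour exposure of cells in 96-well plates to compound at five concentrations. TGI marks complete inhibition of growth.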

Key:
Assay in all cases: NCI-60 cell line screen, 48 h
DMS 273 small cell lung = system: DMS 273 small cell lung
SK-MEL-2 melanoma = system: SK-MEL-2 melanoma
SK-OV-3 ovarian = system: SK-OV-3 ovarian
LXFL 529 NSCLC = system: LXFL 529 NSCLC
SR leukemia = system: SR leukemia
SN12C renal = system: SN12C renal
OVCAR-8 ovarian = system: OVCAR-8 ovarian
SNB-78 CNS = system: SNB-78 CNS
DLD-1 colon = system: DLD-1 colon

Row | Structure (SMILES) | TGI (DMS 273 small cell lung) [µM] | TGI (SK-MEL-2 melanoma) [µM] | TGI (SK-OV-3 ovarian) [µM] | TGI (LXFL 529 NSCLC) [µM] | TGI (SR leukemia) [µM] | TGI (SN12C renal) [µM] | TGI (OVCAR-8 ovarian) [µM] | TGI (SNB-78 CNS) [µM] | TGI (DLD-1 colon) [µM]
1 | COC(=O)C1C(C(=O)OC)C2C(=O)C3C(C(=O)OC)C(C(=O)OC)C3C(=O)C12 (stereo not given) | > 100 | > 100 | > 100 | > 100 | > 100 | > 100 | > 100 | > 100 | 
2 | COc1cc([C@@H]2c3cc4c(cc3[C@@H](NC(=O)c3ccc(C#N)cc3)C3COC(=O)[C@@H]32)OCO4)cc(OC)c1O (stereo not given in full) | 10.3 | 5.56 | 2.87 | > 100 |  | 1.51 | 6.38 | 58.2 | 12
3 | COc1cc(Nc2cnc3ccc(C(F)(F)F)cc3n2)cc(OC)c1OC | > 100 | > 100 |  | > 100 | > 100 | > 100 | > 100 | > 100 | 
4 | O=C1NC(=O)c2c1n(Cc1ccccc1)c(=O)n2Cc1ccccc1 | > 100 | > 100 | > 100 | > 100 |  | > 100 | > 100 | > 100 | > 100
5 | Cc1ccc2c(c1)CN1c3ccc(C)cc3CN2C1c1ccccc1O | > 100 | > 100 | > 100 | > 100 | > 100 | > 100 | > 100 | > 100 | > 100
6 | NNC(=O)C(=O)N/N=C1/CCCC1C(=O)CCC(=O)Nc1ccc(Cl)cc1 (stereo not given) | > 100 | > 100 | > 100 | > 100 | > 100 | > 100 | > 100 | > 100 | > 100
7 | OCc1cc2c(cn1)[nH]c1ccc(NCc3ccccc3)cc12 | 48 | > 100 | 86.2 | 58.8 |  | > 100 | > 100 |  | > 100
8 | CC1=N/C(=C\c2ccc(/C=C3/N=C(C)OC3=O)cc2)C(=O)O1 | > 100 | > 100 | > 100 | > 100 |  | > 100 | > 100 | > 100 | > 100
9 | O=c1/c(=C/c2ccccc2[N+](=O)[O-])sc2nnc(-c3cccnc3)n12 | > 100 | > 100 |  | > 100 | > 100 | > 100 | > 100 | > 100 | > 100
10 | CCc1ccccc1NC(=O)c1cccc([N+](=O)[O-])c1O | 86.2 |  | > 100 | > 100 |  | > 100 | > 100 | 94.2 | > 100
11 | Cc1ccc(S(=O)(=O)OCC/C(=C\[Si](C)(C)C)c2ccccc2)cc1 | > 100 | > 100 | > 100 | > 100 | > 100 | > 100 | > 100 |  | > 100
12 | COC(=O)CCC(NC(=S)N/N=C/c1cccs1)C(=O)OC (stereo not given) | > 100 | > 100 | > 100 | > 100 | > 100 | > 100 | > 100 | > 100 | > 100
13 | COc1cc2oc(-c3ccc(O)cc3)cc(=O)c2c(O)c1C1OC(CO)C(O)C(O)C1O (stereo not given) | > 100 | > 100 | > 100 | > 100 | > 100 | > 100 | > 100 | > 100 | > 100
